Tests used:
Assay type in all cases: in vivo, rat
[1] = system: STZ-induced diabetic rats; assay: Total and soluble protein in lens homogenate (Lowry)
Experimental: Blood/Lens collection and processing: Blood was drawn once in every week from retro orbital plexus for glucose and insulin estimation. At the end of 12 weeks, animals were sacrificed by CO2 asphyxiation and lenses were dissected by posterior approach and stored at −70° C. until further analysis. A 10% homogenate was prepared from 3-5 pooled lenses in 50 mM phosphate buffer, pH 7.4. All the biochemical parameters were analyzed in the soluble fraction of the lens homogenate (15,000x g at 4° C.) except for lens malondialdehyde (MDA), which was determined in the total homogenate.
Biochemical estimations: Lens MDA, as thiobarbituric acid reacting substances (TBARS) protein carbonyl content were determined according to the methods for estimating the protein carbonyl content described by Suryanarayana P et al. in the research paper “Curcumin and turmeric delay streptozotocin-induced diabetic cataract in rats,” Invest Ophthalmol Vis Sci 2005; 46(6):2092-9. Total, soluble and insoluble protein was assayed by Lowry method using bovine serum albumin (BSA) as standard.
Individual lenses were weighed and pooled into 4 lenses for a pool, and such 4-5 pools were formed per group. A 10% homogenate was prepared in 50 mM sodium phosphate buffer pH 7.4, with tissue homogenizer at intermittent time gaps to avoid excess heat generation. Separate aliquots of total homogenate (TH) were made 250 μl for TBARS assay, 150 μl for sorbitol estimation, and 20 μl for protein estimation. Remaining homogenate was centrifuged at 10,000 RPM for 30 min at 4° C. Supernatant was separated into labelled vials, as total soluble protein (TSP).
Determining soluble percentage of protein in lens homogenate: Protein estimation was done in lens homogenate and soluble fraction by Lowry's method. Amount of protein present per gram weight of lens was calculated. Percentage of soluble protein was calculated by multiplying the fraction of soluble protein by 100.

[2] = system: Rhodopsin (Rho); assay: Rhodopsin protein in retina by immunofluorescence; conditions: diabetic retina, curcumin 0.01% diet
Experimental: (§1) Histopathology: The eye balls from selected animals were collected in fixative 4% paraformaldehyde solution in separately labeled vials. The tissues were given some nicks so as to facilitate penetration of fixative into deep tissue. They were kept at room temperature for 24-48 hrs followed by replacing the fixative with 20 mM sodium phosphate buffer. Buffer was scheduled to be replaced with fresh buffer one each week until histopathological processing. Tissues were embedded in paraffin and sections were taken in microtome. Coated slides are used for immunohistochemistry and immunofluorescence, whereas uncoated slides for hemotoxylin and eosin (H & E) staining.

[3] = system: STZ-induced diabetic rats; assay: Size exclusion HPLC of lens soluble protein; conditions: vs Group-D
Experimental: (§2) Sodium dodecyl sulfate polyacrylamide gel electrophoresis (SDS-PAGE) and size exclusion chromatography of lens proteins: Subunit profile and cross-linking of soluble proteins were analyzed on 10% polyacrylamide in the presence of sodium dodecyl sulfate (SDS) under reducing conditions. Crystalline distribution in the soluble protein fraction was performed by size exclusion chromatography on a 600×7.5 mm TSK-G4000 SW column (TOSOH Co., Japan) using a HPLC system. The column was equilibrated with 0.1 M sodium phosphate buffer pH 6.7 containing 0.1 M sodium chloride at a flow rate of 1 ml/min.

[4] = system: STZ-induced diabetic rats; assay: Slit lamp examination and cataract grading (diabetic cataract); conditions: end of ten weeks; lutein 0.5% or curcumin 0.01% in diet; Group-D stage 4
Experimental: Male Wistar strain (WNIN) rats (2 months old; Average BW of 213±14 g) obtained from the National Center for Laboratory Animal Sciences, National Institute of Nutrition, Hyderabad, India (NCLAS, NIN). Animals were maintained at NCLAS, NIN and kept for acclimatization in an experimental room for two weeks. Diabetes was induced in overnight fasted animals by a single intraperitoneal injection of STZ (30 mg/kg) in 0.1 M citrate buffer, pH 4.5. Another set of rats, which received only a vehicle, served as the control (Group I; n=12). Fasting blood glucose levels were measured 72 h after STZ injection. Animals having blood glucose levels >150 mg/dL were considered diabetic and those were only divided into five groups (Group II-VI). A group of control rats (n=6) were fed with 0.01% soluble curcumin (Group VII) and soluble 0.5% lutein alone (Group VIII).
Slit lamp examination and Cataract grading: Eyes were examined every week using a slit lamp bio microscope on dilated pupils. Initiation and progression of lens opacity was graded into five categories (0-4).
Cataract development and progression: Onset and progression of cataract is monitored by slit lamp biomicroscope examination as described below: Eyes were examined every week using a slit lamp biomicroscope (Kowa SL15, Portable, Japan) on dilated pupils.

[5] = system: STZ-induced diabetic rats; assay: Electroretinogram, oscillatory potentials (OPs); conditions: curcumin 0.01% diet; D 334.2
Experimental: Experimental design: Male Wistar-NIN rats with an average body weight of 120 gms are obtained from the National center for laboratory animal sciences, National institute of Nutrition, Hyderabad (NCLAS, NIN). Animals were maintained at NCLAS, MN and kept for acclimatization in an experimental room for two weeks. Diabetes was induced in overnight fasted animals by a single intraperitoneal injection of STZ (30 mg/kg) in 0.1 M citrate buffer, pH 4.5. Another set of rats, which received only a vehicle, served as the control (Group-C; n=6). Fasting blood glucose levels were measured 72 h after STZ injection. Animals having blood glucose levels >150 mg/dL were considered diabetic and all the animals are divided into four groups as shown in the Table 3 below.
All the animals were housed in individual cages maintained on their respective diets for 12. weeks and drinking water was provided ad libitum throughout the study period. Daily food intake and weekly body weights, fasting glucose levels were noted. […]
Electroretinogram (ERG) Analysis: Diabetic retinoapthy is characterized by disturbances in retinal function. The retinal function can be assessed by electroretinogram. […]
Animals were dark-adapted for overnight and prepared for the ERG procedure under dim red illumination. […] The oscillatory potentials were extracted from the wave form and the sum of all OPs was calculated.

[6] = system: STZ-induced diabetic rats; assay: SDS-PAGE protein profiling of lens soluble fraction; conditions: vs group-D
Experimental: as §2
SDS-PAGE protein profiling: Differences in protein distribution pattern were observed by running the lens protein samples on 12% polyacrylamide gel. 30 μg of protein was loaded per well along with molecular weight marker for SDS-PAGE (Broad range SDS-PAGE marker, BioRad). […] FIG. 3 represents the SDS-PAGE pattern of soluble fraction of lens proteins, as shown in the drawings accompanied with the specification.

[7] = system: Rhodopsin (Rho); assay: Rhodopsin mRNA in retina by real-time PCR; conditions: diabetic retina, curcumin 0.01% diet
Experimental: (§3) Quantitative real-time PCR: Total RNA was extracted from the retina of rats using Tri reagent. Isolated RNA was further purified by RNeasy Mini Kit (Qiagen) and quantified by measuring the absorbance at 260 and 280 nm on ND1000 spectrophotometer (NanoDrop technologies, Delaware, USA). The quality of RNA preparation was assessed by electrophoresis on a denaturing agarose gel. Two μg of total RNA was reverse transcribed using High Capacity cDNA Reverse Transcription kit. Reverse transcription reaction was carried out with a thermocycler (ABI 9700). Real-time polymerase chain reaction (PCR) (ABI-7500) was performed in triplicates with 25 ng cDNA templates using SYBR green master mix with gene specific primers. Normalization and validation of data were carried using (3-actin as an internal control and data were compared between samples according to comparative threshold cycle (2^-ΔΔct) method.

[8] = system: Nerve Growth Factor (NGF); assay: NGF protein in retina by immunofluorescence; conditions: diabetic retina, curcumin 0.01% diet
Experimental: as §1

[9] = system: Nerve Growth Factor (NGF); assay: NGF gene expression in retina by real-time PCR; conditions: diabetic retina, curcumin 0.01% diet
Experimental: as §3

[10] = system: STZ-induced diabetic rats; assay: Retina histology (H & E), thickness of retinal layers; conditions: curcumin 0.01% diet, Table 6
Experimental: as §1
A representative table of retinal layers thickness (in μm) measured by the use of Lieca application suit, Leica, Switzerland. C, Non diabetic control; D, Diabetic control; D+RL, Diabetes+Regular Lutein; D+SL, Diabetes+Soluble Lutein; GCL, ganglion cell layer; IPL, inner plexiform layer; INL, inner nuclear layer; OPL, outer plexiform layer; ONL, outer nuclear layer; PRL, photo receptor layer.

[11] = system: Platelet-derived growth factor (PDGF); assay: PDGF expression in retina by immunohistochemistry; conditions: diabetic retina, curcumin 0.01% diet
Experimental: as §1

COc1cc(/C=C/C(=O)CC(=O)/C=C/c2ccc(O)c(OC)c2)ccc1O [RC, curcumin]
loss of soluble protein compared to group-D ([1]; lens): significantly prevented loss of soluble protein
Total protein ([1]; lens homogenate, mean ± SEM, n = 6, lutein 0.5% or curcumin 0.01% diet, 12 weeks): 368.50 ± 19.2 mg/gm lens
Soluble protein ([1]; lens soluble fraction, mean ± SEM, n = 6): 202.63 ± 21.6 mg/gm lens
Rho protein expression [2]: prevented loss of Rho protein expression
size exclusion profile of total soluble protein (TSP) [3]: normalized the profile of TSP
severity of cataracts (stage 0-4) [4]: 3.0 stage
sum of OPs (amplitude) [5]: 445.7 μV
band of aggregated proteins at ~50 kDa [6]: reduced band intensity
mRNA levels of Rho gene [7]: prevented its decline
NGF protein [8]: prevented loss of NGF protein
NGF gene expression [9]: equal beneficiary effect in preventing down regulation of NGF gene
GCL + IPL thickness [10]: 35.692 μ
INL thickness [10]: 13.648 μ
ONL thickness [10]: 30.108 μ
OPL thickness [10]: 5.685 μ
PRL thickness [10]: 19.520 μ
Total retinal thickness [10]: 106.014 μ
PDGF expression [11]: inhibited diabetes induced PDGF over expression
